In brackets after ≈: the same amount, converted by molar mass.
Assays:
Format in all cases: functional
Staphylococcus aureus [1] = assay: Antimicrobial activity against Staphylococcus aureus ATCC 25923 after 24 hrs by disk diffusion method; conditions: ATCC 25923, 24 h
Staphylococcus aureus [2] = assay: Antimicrobial activity against Staphylococcus aureus isolate after 24 hrs by disk diffusion method
Bacillus subtilis [3] = assay: Antimicrobial activity against Bacillus subtilis ATCC 6633 after 24 hrs by disk diffusion method; conditions: ATCC 6633, 24 h
Bacillus subtilis [4] = assay: Antimicrobial activity against Bacillus subtilis isolate after 24 hrs by disk diffusion method
Escherichia coli [5] = assay: Antimicrobial activity against Escherichia coli ATCC 25922 after 24 hrs by disk diffusion method; conditions: ATCC 25922, 24 h
Escherichia coli [6] = assay: Antimicrobial activity against Escherichia coli isolate after 24 hrs by disk diffusion method
Klebsiella pneumoniae [7] = assay: Antimicrobial activity against Klebsiella pneumoniae RSHM 574 after 24 hrs by disk diffusion method
Klebsiella pneumoniae [8] = assay: Antimicrobial activity against Klebsiella pneumoniae after 24 hrs by disk diffusion method
Pseudomonas aeruginosa = assay: Antimicrobial activity against Pseudomonas aeruginosa ATCC […] after 24 hrs by disk diffusion method; conditions: ATCC 25853, 24 h
Candida albicans [9] = assay: Antimicrobial activity against Candida albicans ATCC 10231 after 24 to 48 hrs after 24 hrs by disk diffusion method
Candida albicans [10] = assay: Antimicrobial activity against Candida albicans isolate after 24 to 48 hrs after 24 hrs by disk diffusion method

SMILES | MIC (Staphylococcus aureus [1]) [µg/mL] | MIC (Staphylococcus aureus [2]) [µg/mL] | MIC (Bacillus subtilis [3]) [µg/mL] | MIC (Bacillus subtilis [4]) [µg/mL] | MIC (Escherichia coli [5]) [µg/mL] | MIC (Escherichia coli [6]) [µg/mL] | MIC (Klebsiella pneumoniae [7]) [µg/mL] | MIC (Klebsiella pneumoniae [8]) [µg/mL] | MIC (Pseudomonas aeruginosa) [µg/mL] | MIC (Candida albicans [9]) [µg/mL] | MIC (Candida albicans [10]) [µg/mL]
CCS(=O)(=O)c1ccc2oc(Cc3ccc(Br)cc3)nc2c1 | 125 (≈ 329 µM) | 125 (≈ 329 µM) | 62.5 (≈ 164 µM) | 15.6 (≈ 41.1 µM) | 62.5 (≈ 164 µM) | 125 (≈ 329 µM) | 62.5 (≈ 164 µM) | 125 (≈ 329 µM) | 62.5 (≈ 164 µM) | 62.5 (≈ 164 µM) | 62.5 (≈ 164 µM)
CCS(=O)(=O)c1ccc2oc(-c3ccccc3)nc2c1 | 125 (≈ 435 µM) | 125 (≈ 435 µM) | 62.5 (≈ 218 µM) | 31.2 (≈ 109 µM) | 62.5 (≈ 218 µM) | 62.5 (≈ 218 µM) | 125 (≈ 435 µM) | 125 (≈ 435 µM) | 62.5 (≈ 218 µM) | 125 (≈ 435 µM) | 31.2 (≈ 109 µM)
CC1COc2c(N3CCN(C)CC3)c(F)cc3c(=O)c(C(=O)O)cn1c23 (stereo unspecified) [OFLOXACIN] | 0.25 (≈ 0.692 µM) | 2 (≈ 5.53 µM) | 0.125 (≈ 0.346 µM) | 32 (≈ 88.6 µM) | 0.125 (≈ 0.346 µM) | 32 (≈ 88.6 µM) | 0.25 (≈ 0.692 µM) | 64 (≈ 177 µM) | 8 (≈ 22.1 µM) |  | 
CCS(=O)(=O)c1ccc2oc(-c3ccccc3Br)nc2c1 | 125 (≈ 341 µM) | 125 (≈ 341 µM) | 15.6 (≈ 42.7 µM) | 31.2 (≈ 85.3 µM) | 62.5 (≈ 171 µM) | 250 (≈ 683 µM) | 31.2 (≈ 85.3 µM) | 125 (≈ 341 µM) | 62.5 (≈ 171 µM) | 62.5 (≈ 171 µM) | 62.5 (≈ 171 µM)
CCS(=O)(=O)c1ccc2oc(-c3ccc(C(C)(C)C)cc3)nc2c1 | 125 (≈ 364 µM) | 125 (≈ 364 µM) | 7.81 (≈ 22.7 µM) | 15.6 (≈ 45.5 µM) | 62.5 (≈ 182 µM) | 62.5 (≈ 182 µM) | 62.5 (≈ 182 µM) | 250 (≈ 728 µM) | 62.5 (≈ 182 µM) | 125 (≈ 364 µM) | 31.2 (≈ 91 µM)
C[C@@H]1[C@H](O)[C@@H](C)/C=C/C=C/C=C/C=C/C=C/C=C/C=C/[C@H](O[C@@H]2O[C@H](C)[C@@H](O)[C@H](N)[C@@H]2O)C[C@@H]2O[C@](O)(C[C@@H](O)C[C@@H](O)[C@H](O)CC[C@@H](O)C[C@@H](O)CC(=O)O[C@H]1C)C[C@H](O)[C@H]2C(=O)O [AMPHOTERICIN B] |  |  |  |  |  |  |  |  |  | 1 (≈ 1.08 µM) | 1 (≈ 1.08 µM)
CCS(=O)(=O)c1ccc2oc(Cc3ccc(Cl)cc3)nc2c1 | 125 (≈ 372 µM) | 125 (≈ 372 µM) | 31.2 (≈ 93.1 µM) | 15.6 (≈ 46.5 µM) | 62.5 (≈ 186 µM) | 125 (≈ 372 µM) | 62.5 (≈ 186 µM) | 125 (≈ 372 µM) | 62.5 (≈ 186 µM) | 31.2 (≈ 93.1 µM) | 62.5 (≈ 186 µM)
CCS(=O)(=O)c1ccc2oc(-c3ccc([N+](=O)[O-])cc3)nc2c1 | 125 (≈ 376 µM) | 125 (≈ 376 µM) | 31.2 (≈ 94 µM) | 15.6 (≈ 47 µM) | 62.5 (≈ 188 µM) | 62.5 (≈ 188 µM) | 125 (≈ 376 µM) | 125 (≈ 376 µM) | 62.5 (≈ 188 µM) | 125 (≈ 376 µM) | 62.5 (≈ 188 µM)
CCS(=O)(=O)c1ccc2oc(CCc3ccccc3)nc2c1 | 125 (≈ 396 µM) | 125 (≈ 396 µM) | 62.5 (≈ 198 µM) | 31.2 (≈ 99.1 µM) | 62.5 (≈ 198 µM) | 125 (≈ 396 µM) | 31.2 (≈ 99.1 µM) | 125 (≈ 396 µM) | 62.5 (≈ 198 µM) | 62.5 (≈ 198 µM) | 62.5 (≈ 198 µM)
CCS(=O)(=O)c1ccc2oc(Cc3ccc(C)cc3)nc2c1 | 125 (≈ 396 µM) | 125 (≈ 396 µM) | 31.2 (≈ 99.1 µM) | 31.2 (≈ 99.1 µM) | 62.5 (≈ 198 µM) | 125 (≈ 396 µM) | 62.5 (≈ 198 µM) | 125 (≈ 396 µM) | 62.5 (≈ 198 µM) | 62.5 (≈ 198 µM) | 62.5 (≈ 198 µM)
CCc1ccc(-c2nc3cc(S(=O)(=O)CC)ccc3o2)cc1 | 125 (≈ 396 µM) | 125 (≈ 396 µM) | 31.2 (≈ 99.1 µM) | 31.2 (≈ 99.1 µM) | 62.5 (≈ 198 µM) | 62.5 (≈ 198 µM) | 62.5 (≈ 198 µM) | 125 (≈ 396 µM) | 62.5 (≈ 198 µM) | 125 (≈ 396 µM) | 15.6 (≈ 49.5 µM)
CCS(=O)(=O)c1ccc2oc(Cc3ccc(F)cc3)nc2c1 | 125 (≈ 391 µM) | 125 (≈ 391 µM) | 62.5 (≈ 196 µM) | 31.2 (≈ 97.9 µM) | 62.5 (≈ 196 µM) | 125 (≈ 391 µM) | 31.2 (≈ 97.9 µM) | 125 (≈ 391 µM) | 62.5 (≈ 196 µM) | 62.5 (≈ 196 µM) | 31.2 (≈ 97.9 µM)

— ChEMBL document CHEMBL1140961, “Synthesis and biological activity of some new benzoxazoles” (2008)
